Source: patent US6387905B2, “Compounds useful for inhibition of farnesyl protein transferase” (Schering Corporation, priority 1996, dated 2002)
Where two headings read alike, the source gives them in different places.

Key:
[1] = target: farnesyl protein transferase (FPT), H-ras (Homo sapiens, UniProt P49354+P49356); assay: FPT IC50 (H-ras), inhibition of farnesyl protein transferase, in vitro enzyme assay; format: biochemical
Procedure: (§1) FPT IC50 (inhibition of farnesyl protein transferase, in vitro enzyme assay) and COS Cell IC50 (Cell-Based Assay) were determined following the assay procedures described in WO 95/10516, published Apr. 20, 1995. GGPT IC50 (inhibition of geranylgeranyl protein transferase, in vitro enzyme assay), Cell Mat Assay, and anti-tumor activity (in vivo anti-tumor studies) could be determined by the assay procedures described in WO 95/10516. The disclosure of WO 95/10516 is incorporated herein by reference thereto.

Human tumor cells = assay: Soft Agar Assay (anchorage-independent growth); format: cell-based; settings: Homo sapiens, Table 5; read-out: Soft Agar IC50
Procedure: Anchorage-independent growth is a characteristic of tumorgenic cell lines. Human tumor cells are suspended in growth medium containing 0.3% agarose and an indicated concentration of a farnesyl transferase inhibitor. The solution is overlayed onto growth medium solidified with 0.6% agarose containing the same concentration of farnesyl transferase inhibitor as the top layer. After the top layer is solidified, plates are incubated for 10-16 days at 37° C. under 5% CO2 to allow colony outgrowth. After incubation, the colonies are stained by overlaying the agar with a solution of MTT (3-[4,5-dimethyl-thiazol-2-yl]-2,5-diphenyltetrazolium bromide, Thiazolyl blue) (1 mg/mL in PBS). Colonies can be counted and the IC50's can be determined.

COS Cell = COS Cell IC50 (Cell-Based Assay)
Procedure: as §1

[2] = COS, Table 5, read-out: Cos Cell IC50
[3] = H-ras, read-out: FPT IC50 (H-ras)
[4] = Table 3, H-ras, read-out: FPT IC50 (nM) (H-ras)

Compound	IC50 ([1]; Table 4, read-out: FPT IC50)	IC50 (Human tumor cells)	IC50 (COS Cell; [2])	other results
NC(=O)CCCCC(=O)N1CCC(CC(=O)N2CCC([C@H]3c4ncc(Br)cc4CCc4cc(Cl)cc(Br)c43)CC2)CC1 [Cmpd 67.0-B]	3.5 nM			
N#CCC(=O)N1CCC(CC(=O)N2CCC([C@H]3c4ncc(Br)cc4CCc4cc(Cl)cc(Br)c43)CC2)CC1 [Cmpd 44.0-B]	2.6 nM	120 nM	< 10 nM	
O=C(Cc1c[nH]cn1)N1CCC(CC(=O)N2CCC([C@H]3c4ncc(Br)cc4CCc4cc(Cl)cc(Br)c43)CC2)CC1 [Cmpd 30.0-B]	2.9 nM	500 nM	9 nM	
O=C(CC1CCN(C(=O)CC2CCCCO2)CC1)N1CCC([C@H]2c3ncc(Br)cc3CCc3cc(Cl)cc(Br)c32)CC1 (stereo partly drawn) [Cmpd 114.3-B]	7.2 nM	432 nM	11 nM	
O=C(CCN1CCCCC1)N1CCC(CC(=O)N2CCC([C@H]3c4ncc(Br)cc4CCc4cc(Cl)cc(Br)c43)CC2)CC1 [Cmpd 7.0-B]	< 2.6 nM		43 nM	
CCOC(=O)c1ncn(CC(=O)N2CCC(CC(=O)N3CCC([C@H]4c5ncc(Br)cc5CCc5cc(Cl)cc(Br)c54)CC3)CC2)c1C [Cmpd 54.0-B]	3.9 nM	> 500 nM	100 nM	
NC(=O)CCCCCC(=O)N1CCC(CC(=O)N2CCC([C@H]3c4ncc(Br)cc4CCc4cc(Cl)cc(Br)c43)CC2)CC1 [Cmpd 71.0-B]	3.3 nM	240 nM	19 nM	
O=C(NOCc1ccccc1)C(=O)N1CCC(CC(=O)N2CCC([C@H]3c4ncc(Br)cc4CCc4cc(Cl)cc(Br)c43)CC2)CC1 [Cmpd 60.0-B]	5.4 nM	500 nM	120 nM	
CN(C)S(=O)(=O)NCC(=O)N1CCC(CC(=O)N2CCC([C@H]3c4ncc(Br)cc4CCc4cc(Cl)cc(Br)c43)CC2)CC1 [Cmpd 38.0-B]	3.2 nM	210 nM	10 nM	
O=C(CC1CCN(C(=O)Cn2cnc(-c3ccccc3)c2)CC1)N1CCC([C@H]2c3ncc(Br)cc3CCc3cc(Cl)cc(Br)c32)CC1 [Cmpd 20.0-B]	5.6 nM			
CCOC(CC(=O)N1CCC(CC(=O)N2CCC([C@H]3c4ncc(Br)cc4CCc4cc(Cl)cc(Br)c43)CC2)CC1)OCC [Cmpd 76.0-B]	6.7 nM			
NC(=O)CCC(=O)N1CCC(CC(=O)N2CCC([C@H]3c4ncc(Br)cc4CCc4cc(Cl)cc(Br)c43)CC2)CC1 [Cmpd 69.0-B]	2.5 nM	190 nM	25 nM	
CC(=O)C(=O)N1CCC(CC(=O)N2CCC([C@H]3c4ncc(Br)cc4CCc4cc(Cl)cc(Br)c43)CC2)CC1 [Cmpd 72.0-B]	5.4 nM	320 nM	10 nM	
COC(NC(=O)CC(=O)N1CCC(CC(=O)N2CCC([C@H]3c4ncc(Br)cc4CCc4cc(Cl)cc(Br)c43)CC2)CC1)C(C)C (stereo partly drawn) [Cmpd 51.0-B]	8.1 nM		280 nM	
Cc1cn(CC(=O)N2CCC(CC(=O)N3CCC([C@H]4c5ncc(Br)cc5CCc5cc(Cl)cc(Br)c54)CC3)CC2)cn1 [Cmpd 11.0-B]	1.6 nM	> 500 nM	29 nM	
CNC(=O)C(=O)N1CCC(CC(=O)N2CCC([C@H]3c4ncc(Br)cc4CCc4cc(Cl)cc(Br)c43)CC2)CC1 [Cmpd 64.0-B]		130 nM	10 nM	
CC(C)(C)OC(=O)N1CC(O)CC1C(=O)N1CCC(CC(=O)N2CCC(C3c4ncc(Br)cc4CCc4cc(Cl)cc(Br)c43)CC2)CC1 (stereo not drawn) [Example 24.0-B]	0.7 nM	> 500 nM	100 nM	
NC(=O)CCCCC(=O)N1CCC(CC(=O)N2CCC([C@H]3c4ncc(Br)cc4CCc4cc(Cl)cc(Br)c43)CC2)CC1 [Example 108.0-B]				IC50 [1, 3]: 3.5 nM
O=C(O)CCCC(=O)N1CCC(CC(=O)N2CCC([C@H]3c4ncc(Br)cc4CCc4cc(Cl)cc(Br)c43)CC2)CC1 [Example 19.0-B]	1.1 nM			IC50 (COS Cell; COS, read-out: Cos Cell IC50, Table 5): 17.5 nM; IC50 (COS Cell; read-out: Cos Cell IC50, Table 5): < 10 nM

Compound	IC50 ([1]; Table 4, read-out: FPT IC50)	IC50 (Human tumor cells)	IC50 (COS Cell; [2])	other results
O=C(CC1CCN(C(=O)CN2CCCCC2)CC1)N1CCC([C@H]2c3ncc(Br)cc3CCc3cc(Cl)cc(Br)c32)CC1 [Cmpd 75.0-B]	4.7 nM	150 nM	10 nM	
CN(C)C(=O)C(=O)N1CCC(CC(=O)N2CCC([C@H]3c4ncc(Br)cc4CCc4cc(Cl)cc(Br)c43)CC2)CC1 [Cmpd 33.0-B]	2.1 nM	> 120 nM	10 nM	
CC(C)=NOCCC(=O)N1CCC(CC(=O)N2CCC([C@H]3c4ncc(Br)cc4CCc4cc(Cl)cc(Br)c43)CC2)CC1 [Example 23.0-B]				IC50 [1, 3]: 2.8 nM
O=C(CC1CCOCC1)N1CCC(CC(=O)N2CCC([C@H]3c4ncc(Br)cc4CCc4cc(Cl)cc(Br)c43)CC2)CC1 [Cmpd 85.0-B]	5 nM	333 nM	14 nM	
O=C(C(=O)N1CCC(CC(=O)N2CCC([C@H]3c4ncc(Br)cc4CCc4cc(Cl)cc(Br)c43)CC2)CC1)c1cccs1 [Cmpd 81.0-B]	9.3 nM	> 500 nM	28 nM	
O=C(O)CC(O)CC(=O)N1CCC(CC(=O)N2CCC([C@H]3c4ncc(Br)cc4CCc4cc(Cl)cc(Br)c43)CC2)CC1 (stereo partly drawn) [Example 74.0-B]	1.7 nM	500 nM	40 nM	
NS(=O)(=O)NCC(=O)N1CCC(CC(=O)N2CCC([C@H]3c4ncc(Br)cc4CCc4cc(Cl)cc(Br)c43)CC2)CC1 [Cmpd 39.0-B]	4.1 nM	220 nM	16 nM	
O=C(CC1CCN(C(=O)CN2CCS(=O)(=O)CC2)CC1)N1CCC(C2c3ncc(Br)cc3CCc3cc(Cl)cc(Br)c32)CC1 (single isomer, unassigned; (+)) [Example 23]				IC50 [1, 4]: 2.7 nM; IC50 (COS Cell; COS, Table 3, read-out: COS Cell IC50): 14 nM
NCCC(=O)N1CCC(CC(=O)N2CCC([C@H]3c4ncc(Br)cc4CCc4cc(Cl)cc(Br)c43)CC2)CC1 [Cmpd 88.0-B]	2.2 nM	> 500 nM	23 nM	
O=C(CC1CCN(C(=O)Cn2cncn2)CC1)N1CCC([C@H]2c3ncc(Br)cc3CCc3cc(Cl)cc(Br)c32)CC1 [Cmpd 57.0-B]	1.8 nM	110 nM	< 10 nM	
O=C(NO)C(=O)N1CCC(CC(=O)N2CCC([C@H]3c4ncc(Br)cc4CCc4cc(Cl)cc(Br)c43)CC2)CC1 [Cmpd 58.0-B]	16 nM			
CC(C)(C)OC(=O)N[C@@H](Cc1ccccc1)C(=O)N1CCC(CC(=O)N2CCC([C@H]3c4ncc(Br)cc4CCc4cc(Cl)cc(Br)c43)CC2)CC1 [Example 7]				IC50 [1, 4]: 31.7 nM
O=C(CO)N1CCC(CC(=O)N2CCC([C@H]3c4ncc(Br)cc4CCc4cc(Cl)cc(Br)c43)CC2)CC1 [Cmpd 37.0-B]	2.6 nM	75 nM		
CCOC(=O)c1c(C)ncn1CC(=O)N1CCC(CC(=O)N2CCC([C@H]3c4ncc(Br)cc4CCc4cc(Cl)cc(Br)c43)CC2)CC1 [Cmpd 21.0-B]	5.7 nM	> 500 nM		
NCCCC(=O)N1CCC(CC(=O)N2CCC([C@H]3c4ncc(Br)cc4CCc4cc(Cl)cc(Br)c43)CC2)CC1 [Cmpd 90.0-B]	3.8 nM			
CC(C)(C)OC(=O)NCCC(=O)N1CCC(CC(=O)N2CCC([C@H]3c4ncc(Br)cc4CCc4cc(Cl)cc(Br)c43)CC2)CC1 [Example 86.0-B]	18 nM			
CCOC(=O)c1c(C)ncn1CC(=O)N1CCC(CC(=O)N2CCC([C@H]3c4ncc(Br)cc4CCc4cc(Cl)cc(Br)c43)CC2)CC1 [Cmpd 53.0-B]	3.6 nM		50 nM	
O=C(CC1CCN(C(=O)CN2C(=O)CSC2=O)CC1)N1CCC([C@H]2c3ncc(Br)cc3CCc3cc(Cl)cc(Br)c32)CC1 [Example 79.0-B]				IC50 [1, 3]: 4.4 nM
